{"source": "patent US12729182B2", "about": "“Crystalline forms of N,N-dimethyltryptamine and methods of using the same” (priority 2022, dated 2026)", "assay_type_in_all_cases": "physicochemical", "key": {"[1]": {"assay": "Slurry competition (interconversion) studies between Forms I and IV in heptane", "conditions": "mixture of Form I and Form IV, pre-saturated heptane, 7 d", "protocol": "Interconversion slurries were conducted in heptane at RT, −20° C., and 40° C. as in Table 12. In these slurries, the heptane was pre-saturated with N,N-DMT using Form IV solids at the stated temperature, and a portion of the liquid phase was filtered into a mixture of Form I and Form IV solids."}, "[2]": {"assay": "Stable form screen slurries, form by XRPD", "conditions": "for Relative thermodynamic stability of the polymorph (conclusion from slurries): slurries at RT, 40° C., about 2 weeks", "protocol": "Slurrying: Suspensions were prepared by adding enough solids to a given solvent at the stated conditions so that undissolved solids were present. The mixture was then agitated (typically by stirring or oscillation) in a sealed vial at a given temperature for an extended period of time.\nSlurry experiments were conducted to determine the relative stability of Forms I, III, and IV. The screening conditions are tabulated at Tables 9-11.\nIn these experiments, saturated solutions containing excess undissolved solids were stirred for extended durations. […] Slurries were conducted RT, 40° C., 5° C., and −20° C. for approximately 2 weeks."}, "[3]": {"assay": "Aqueous solubility by solvent addition, visual assessment", "conditions": "water, calculated from total solvent used"}, "[4]": {"assay": "Hygroscopicity by dynamic vapor sorption (DVS)"}, "[5]": {"assay": "Solid state heating experiments, form conversion"}, "[6]": {"assay": "Thermogravimetric analysis (TGA), decomposition", "conditions": "25 to 350° C. at 10° C./min under nitrogen", "protocol": "TGA or TGA/DSC analyses were performed using a Mettler-Toledo TGA/DSC3+ analyzer. Temperature and enthalpy adjustments were performed using indium, tin, zinc, and phenyl salicylate, and then verified with indium. The balance was verified with calcium oxalate. The sample was placed in an aluminum pan. The pan was hermetically sealed, the lid pierced, and the pan was then inserted into the TG furnace. A weighed aluminum pan configured as the sample pan was placed on the reference platform. The furnace was heated under nitrogen. Samples were analyzed from 25° C. to 350° C. at 10° C./min. Thermogravimetric analyses typically experience a period of equilibration at the start of each analysis, indicated by parentheses on the thermograms in the Figures section (V). The starting temperature for relevant weight loss calculations is selected at a point beyond this region (typically above 35° C.) for accuracy."}, "[7]": {"assay": "Cycling DSC of amorphous N,N-DMT prepared in situ (glass transition)", "protocol": "A cycling DSC experiment was performed to investigate a potential glass transition temperature by preparing amorphous solids in situ, starting with Form IV.\nAt the start of the experiment, Form IV solids were heated past the melt (to 80° C.) and held for 10 minutes. The melted material was quickly cooled to −80° C., then reheated to 200° C. A glass transition (Tg) is observed as a step in the green curve at −18° ° C. Amorphous materials tend to spontaneously crystallize at temperatures above the Tg."}}, "note": "Entries after “also recorded” stand apart in the source; their conditions may differ.", "data": [{"smiles": "CN(C)CCc1c[nH]c2ccccc12", "note": "[Form I and Form IV, N,N-dimethyltryptamine]", "values": [{"measurement": "XRPD Result after competition slurry", "setting": "[1]; 40° C.", "value": "Form IV"}, {"measurement": "XRPD Result after competition slurry", "setting": "[1]; RT", "value": "Form IV"}, {"measurement": "XRPD Result after competition slurry", "setting": "[1]; −20° C.", "value": "Form IV"}]}, {"smiles": "CN(C)CCc1c[nH]c2ccccc12", "note": "[Form I, N,N-dimethyltryptamine]", "values": [{"measurement": "XRPD Result after slurry", "setting": "[2]; start Form I, EtOAc/cyclohexane (5:95), attempted slurry, RT, 13 d", "value": "Form I"}, {"measurement": "XRPD Result after slurry", "setting": "[2]; start Form I, IPA/water (10:90), 5° C., 13 d", "value": "Form I"}, {"measurement": "XRPD Result after slurry", "setting": "[2]; start Form I, THF/water (5:95), attempted slurry, RT, 13 d", "value": "Form IV"}, {"measurement": "XRPD Result after slurry", "setting": "[2]; start Form I, acetone/water (10:90), 5° C., 13 d", "value": "Form IV"}, {"measurement": "XRPD Result after slurry", "setting": "[2]; start Form I, cyclohexane, RT, 13 d", "value": "Form I"}, {"measurement": "XRPD Result after slurry", "setting": "[2]; start Form I, heptane, RT, 13 d", "value": "Form I"}, {"measurement": "XRPD Result after slurry", "setting": "[2]; start Form I, heptane, −20° C., 17 d", "value": "Form I"}, {"measurement": "solubility", "setting": "[3]; thermodynamic from solid", "value": "< 1000", "unit": "µg/mL"}, {"measurement": "Hygroscopicity [DVS], water uptake", "setting": "[4]; at 60% RH", "value": 0.04, "unit": "wt % water at"}, {"measurement": "Hygroscopicity [DVS], water uptake", "setting": "[4]; at 90% RH", "value": "60% RH and 0.18%"}, {"measurement": "Form after DVS cycle and drying", "setting": "[4]; post-DVS solids dried at 60° C.", "value": "form change; also recorded: recrystallized upon cooling to ambient temperature to lower-melting Form III"}]}, {"smiles": "CN(C)CCc1c[nH]c2ccccc12", "note": "[Form III, N,N-dimethyltryptamine]", "values": [{"measurement": "Form conversion on solid state heating", "setting": "[5]; held between 35° C. and 40° C.", "value": "concurrently melt and recrystallize to Form IV"}, {"measurement": "Relative thermodynamic stability of the polymorph (conclusion from slurries)", "setting": "[2]; 5° C., −20° C.", "value": "metastable across all temperatures; also recorded: metastable at all conditions tested"}, {"measurement": "XRPD Result after slurry", "setting": "[2]; start Form III, EtOAc/heptane (5:95), −20° C., 15 d", "value": "Form I"}, {"measurement": "XRPD Result after slurry", "setting": "[2]; start Form III, IPAc/heptane (3:97), RT, 13 d", "value": "Form IV"}, {"measurement": "XRPD Result after slurry", "setting": "[2]; start Form III, MeOH/water (20:80), 5° C., 15 d, sample oily before analysis", "value": "amorphous"}, {"measurement": "XRPD Result after slurry", "setting": "[2]; start Form III, heptane, RT, 15 d", "value": "Form I"}, {"measurement": "Decomposition (steep drop in TGA thermogram) begins above", "setting": "[6]", "value": "> 240", "unit": "°C"}]}, {"smiles": "CN(C)CCc1c[nH]c2ccccc12", "note": "[Form IV, N,N-dimethyltryptamine]", "values": [{"measurement": "Form change on solid state heating", "setting": "[5]; heating at 50° C. for 10 minutes", "value": "no changes"}, {"measurement": "Relative thermodynamic stability of the polymorph (conclusion from slurries)", "setting": "[2]; 5° C., −20° C.", "value": "most thermodynamically stable polymorph; also recorded: remained unchanged upon slurrying in various solvent systems; also recorded: most thermodynamically stable form"}, {"measurement": "XRPD Result after slurry", "setting": "[2]; start Form IV, EtOAc/heptane (5:95), −20° C., 13 d", "value": "Form IV"}, {"measurement": "XRPD Result after slurry", "setting": "[2]; start Form IV, MeOH/water (20:80), 5° C., 13 d", "value": "Form IV"}, {"measurement": "XRPD Result after slurry", "setting": "[2]; start Form IV, acetone/water (10:90), RT, 13 d", "value": "Form IV"}, {"measurement": "XRPD Result after slurry", "setting": "[2]; start Form IV, heptane, RT, 13 d", "value": "Form IV"}, {"measurement": "Aqueous solubility", "setting": "[3]", "value": "(<1) mg/mL"}, {"measurement": "Decomposition (steep drop in TGA thermogram) begins above", "setting": "[6]", "value": "> 240", "unit": "°C"}]}, {"smiles": "CN(C)CCc1c[nH]c2ccccc12", "note": "[amorphous N,N-DMT, N,N-dimethyltryptamine]", "values": [{"measurement": "Glass transition (Tg)", "setting": "[7]; Form IV melted at 80° C., 10 min, cooled to −80° C., reheated to 200° C.", "value": "−18", "unit": "°C"}, {"measurement": "Physical stability of amorphous material", "setting": "[7]; heating/melting experiments, −20° C. to 40° C., above Tg", "value": "readily crystallize; also recorded: poor physical stability"}]}]}
